These results are taken from ChEMBL document CHEMBL1151998, “Combretatroponeshybrids of combretastatin and colchicine. Synthesis and biochemical evaluation” (Bioorg Med Chem Lett, 1993).

The experiment concerns the target Tubulin beta chain (Bos taurus, UniProt Q6B856). Kind of experiment: Compound was evaluated for in vitro inhibitory activity against polymerization of tubulin into microtubules isolated from bovine brain at 1 mg/mL tubulin concentration. The format is tissue-based.

Sequence of Tubulin beta chain (Q6B856 whole entry): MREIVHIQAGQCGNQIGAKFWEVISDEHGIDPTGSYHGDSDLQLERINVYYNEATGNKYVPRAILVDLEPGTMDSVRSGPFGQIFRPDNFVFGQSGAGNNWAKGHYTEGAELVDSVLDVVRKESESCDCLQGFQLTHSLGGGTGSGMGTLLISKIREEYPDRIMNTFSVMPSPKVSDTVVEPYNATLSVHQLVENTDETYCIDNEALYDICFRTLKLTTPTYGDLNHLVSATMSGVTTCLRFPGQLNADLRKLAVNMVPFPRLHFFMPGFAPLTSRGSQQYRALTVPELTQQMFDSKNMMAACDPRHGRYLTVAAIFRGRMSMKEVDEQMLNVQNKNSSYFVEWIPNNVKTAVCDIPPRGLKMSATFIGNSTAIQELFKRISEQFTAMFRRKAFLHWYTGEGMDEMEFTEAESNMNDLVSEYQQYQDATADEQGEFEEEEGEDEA

As to `COc1ccc(-c2ccc(OC)c(=O)cc2)c(OC)c1OC`, the IC50 came to 2.5 µM.

Take `COc1cc(CCc2cccc(SC)c(=O)c2)cc(OC)c1OC`: the IC50 turned out to be 12 µM.

`COc1cc(CCc2cccc(OC)c(=O)c2)cc(OC)c1OC`: the IC50 amounted to 8.6 µM.

The IC50 is the midpoint of a concentration-inhibition curve.
